# Experimental data from US20140249167A1, “Administration of NEDD8-Activating Enzyme Inhibitor” (priority 2010, published 2014).
# “Also recorded” adds a separate entry of the source.
# Experiments:
# Format in all cases: in vivo
# [1] = system: adults with metastatic melanoma; assay: Study C15005, phase 1 dose-escalation study
# Method: As used herein, “dose-limiting toxicity” (DLT) is defined as any of the following events that are considered by the administering physician to be related to therapy with MLN4924: • Grade 4 neutropenia (ANC<500 cells/mm^3) lasting more than 7 consecutive days • Grade 3 neutropenia with fever and/or infection, where fever is defined as an oral temperature[…] • Grade 4 thrombocytopenia (platelets<25,000/mm^3 but >10,000/mm^3) lasting more than 7 consecutive days • Grade 3 thrombocytopenia with bleeding • A platelet count<10,000/mm^3 at any time • Grade 3 or greater nausea and/or emesis despite the use of optimal anti-emetic prophylaxis (wherein “optimal anti-emetic prophylaxis” is defined as an anti-emetic regimen that employs a 5-HT3 antagonist given in standard doses and according to standard schedules). […]
# Study C15005 is a phase 1, dose-escalation study in adults with metastatic melanoma testing MLN4924 dosing on Days 1, 4, 8, and 11 (Schedule A) or Days 1, 8 and 15 (Schedule B) repeated every 21 days. […] Patients were enrolled to dose levels of 50 mg/m^2, 67 mg/m^2, 89 mg/m^2, 118 mg/m^2, 157 mg/m^2, 209 mg/m^2 and 278 mg/m^2 before the MTD was determined to be 209 mg/m^2. […]
# (§1) Although DLTs can occur at any point during treatment, only DLTs occurring during Cycle 1 of treatment will necessarily influence decisions regarding dose escalation, expansion of a dose level, or evaluation of intermediate dose levels. Patients are monitored through all cycles of therapy for treatment-related toxicities.
# [2] = system: adults with advanced nonhematologic malignancies (solid tumors); assay: Study C15001, phase 1, four 21-day dose schedules; conditions: for Findings: Prolonged stable disease in (tumor, cycles): as of Oct. 16, 2011; for DLTs occurred (Grade 3 LFTs): in vivo
# Method: Study C15001 is a first-in-human, phase 1 study in adults with advanced nonhematologic malignancies testing the tolerability of four 21-day dose schedules, including the following: Schedule A: QD×5; Schedule B: Days 1, 3, and 5 given with dexamethasone; and Schedule C: Days 1, 3, and 5 given without dexamethasone. Dose escalation is based on an adaptive approach using the continual reassessment method (CRM).
# Schedule A (QD×5) testing started with 25 mg/m^2 and proceeded through 83 mg/m^2. Increases in liver function tests (LFTs) (AST, ALT, ALP and bilirubin) occurred during Cycle 1 following both single and multiple MLN4924 doses. LFT increases were dose limiting at doses exceeding 50 mg/m^2. Grade 3 and 4 LFT elevations occurred in 2 patients, who both died during the first week of study treatment. One death occurred in a patient with widely metastatic breast cancer receiving 61 mg/m^2, and the second occurred in a patient with advanced colon cancer receiving 83 mg/m^2. In both cases, the investigators assessed the hepatic toxicity as possibly related to MLN4924. As a result of these deaths and their association with increases in transaminase and bilirubin, all ongoing MLN4924 studies were amended to require that bilirubin levels be normal (<ULN) and that ALT and AST levels correspond with […] Grade 1 intensity before administering initial and all subsequent doses of MLN4924. LFTs are checked prior to administration of every dose.
# The MTD for Study C15001 Schedule A was determined to be 50 mg/m^2 QD×5. […] Three DLTs have occurred on Schedule B (Grade 3 LFTs), and 2 DLTs have occurred on Schedule C (Grade 3 LFTs). The MTD for these dosing schedules was determined to be 50 mg/m^2 and 67 mg/m^2, respectively. […]
# Study C15001 is a phase 1 study in adults with advanced nonhematologic malignancies testing the tolerability of four 21-day dose schedules, including one intermittent dosing schedule, Schedule D, on which doses are administered on Days 1, 8, and 15 as a 3-hour infusion. As of Oct. […] Patients have been enrolled to the following dose levels: 147 mg/m^2 and 196 mg/m^2. Testing continues, and dose escalation is based on an adaptive approach using the continual reassessment method (CRM). […]
# [3] = system: adults with acute myelogenous leukemia and myelodysplastic syndrome; assay: Study C15003, phase 1, 3 dose schedules on a 21-day cycle
# [4] = system: adults with lymphoma or multiple myeloma; assay: Study C15002, phase 1, 3 dose schedules on a 21-day cycle
# Excerpt: Study C15002 is a phase 1 study in adults with lymphoma or multiple myeloma testing 3 dose schedules, each repeated on a 21-day cycle. One such schedule is Schedule A: Days 1, 2, 8, and 9.
# As used herein, “dose-limiting toxicity” (DLT) is defined as any of the following events that are considered by the administering physician to be related to therapy with MLN4924: • Grade 4 neutropenia (ANC<500 cells/mm^3) lasting more than 7 consecutive days • Grade 3 neutropenia with fever and/or infection, where fever is defined as an oral temperature[…] • Grade 4 thrombocytopenia (platelets<25,000/mm^3 but >10,000/mm^3) lasting more than 7 consecutive days • Grade 3 thrombocytopenia with bleeding • A platelet count<10,000/mm^3 at any time • Grade 3 or greater nausea and/or emesis despite the use of optimal anti-emetic prophylaxis (wherein “optimal anti-emetic prophylaxis” is defined as an anti-emetic regimen that employs a 5-HT3 antagonist given in standard doses and according to standard schedules). Dexamethasone should not be used because of its CYP3A-inducing effects. • Grade 3 or greater diarrhea that occurs despite maximal supportive therapy • An absolute reduction in LVEF of ≧10% to a value<50% (e.g., LVEF=45% in a patient with LVEF=55% at baseline) • A decrease in LVEF to <40% • An increase in PASP to >50 mm Hg or 3× baseline • Any other Grade 3 or greater nonhematologic toxicity with the following exceptions: • Grade 3 arthralgia/myalgia • Brief (<1 week) Grade 3 fatigue • Grade 3 fever that occurs in the absence of Grade 3 or worse neutropenia or documented infection following daily administration of MLN4924 • Treatment delay of more than 1 week because of a lack of adequate recovery of MLN4924-related hematological or nonhematologic toxicities • MLN4924-related toxicity that requires that any doses of MLN4924 are missed during a cycle or discontinuation of therapy with MLN4924
# Study C15002 is a phase 1 study in adults with lymphoma or multiple myeloma testing 3 dose schedules, each repeated on a 21-day cycle. Two such schedules are intermittent dosing schedules, Schedule B: Days 1, 4, 8, and 11; and Schedule C: Days 1 and 8. As of Oct. […] Patients on Schedule B were enrolled to dose levels of 110 mg/m^2, 147 mg/m^2, 196 mg/m^2 and 261 mg/m^2 before the MTD was determined to be 196 mg/m^2. […]
# as §1
# [5] = Schedule B: Days 1, 4, 8, 11, at 147 mg/m^2
smiles,measurement,setting,value
"NS(=O)(=O)OC[C@@H]1C[C@@H](n2ccc3c(N[C@H]4CCc5ccccc54)ncnc32)C[C@@H]1O [MLN4924, ((1S,2S,4R)-4-(4-((1S)-2,3-dihydro-1H-inden-1-ylamino)-7H-pyrrolo[2,3-d]-pyrimidin-7-yl)-2-hydroxycyclopentyl)methyl sulfamate]","Findings: Prolonged stable disease in (tumor, cycles)","[1]; Schedule A: Days 1, 4, 8, 11","Melanoma (5, 6, 6, 6, 10, 12 cycles)"
same,"Findings: Prolonged stable disease in (tumor, cycles)","[1]; Schedule B: Days 1, 8, 15",Melanoma (11+ cycles)
same,Number of DLTs,[1]; in vivo,two DLTs have occurred
same,Doses at which LFT increases were dose limiting,"[2]; Schedule A (QD×5), Cycle 1, AST, ALT, ALP and bilirubin",exceeding 50 mg/m^2
same,"Grade 3 and 4 LFT elevations, patients who both died during first week of treatment","[2]; Schedule A, one at 61 mg/m^2, one at 83 mg/m^2",2 patients
same,"Dose, MTD not reached (→)","[2]; Schedule D: Days 1, 8, 15, 3-hr infusion, 21-day cycle, solid tumors",≥ 196 mg/m^2
same,"Findings: Prolonged stable disease in (tumor, cycles)","[2]; Schedule D: Days 1, 8, 15, 3-hr infusion",Colon cancer (6+ cycles); also recorded: NSCLC^5 (5+ cycles)
same,"Findings: Prolonged stable disease in (tumor, cycles)","[2]; Schedules A, B, C (findings cell spans the three schedules)","Melanoma (7, 7, 10 cycles); also recorded: SCLC^5 (7 cycles),; also recorded: CRC^5 (5, 5, 9 cycles),; also recorded: Breast (5, 7 cycles); also recorded: Head and Neck (7 cycles)"
same,DLTs occurred (Grade 3 LFTs),"[2]; human, 21 days",2
same,DLTs occurred (Grade 3 LFTs),[2],Three DLTs
same,DLTs,"[3]; Schedule A: Days 1, 3, 5, at 78 mg/m^2",Two DLTs occurred at 78 mg/m^2 (multi-organ failure and reversible elevation of ALT)
same,Kind of DLTs,[3]; [5],"lactic acidosis and hypotension, GI necrosis, and acute renal failure"
same,Number of DLTs,[3]; [5],Four DLTs in three patients
same,MTD (maximum tolerated dose),"[3]; Schedule B: Days 1, 4, 8, 11 of 21-day cycle, AML, MDS",83 mg/m^2
same,Findings,"[4]; Schedule A: Days 1, 2, 8, 9, Hodgkin's Lymphoma (7 cycles)",Partial remission in Hodgkin's
same,Adverse event in one patient (did not contribute to definition of MTD),"[4]; Schedule A, 110 mg/m^2 expansion cohort",Grade 3 AST and ALT elevation
same,DLTs observed,"[4]; Schedule B: Days 1, 4, 8, 11, as of Oct. 7, 2011",no DLTs have been observed
same,DLTs,"[4]; Schedule C: Days 1 and 8, at 196 mg/m^2",One DLT occurred on Schedule C at 196 mg/m^2 (reversible Grade 3 renal failure)
